Patent US9057727B2, “Screening methods using G-protein coupled receptors and related compositions” (The General Hospital Corporation, priority 2007, dated 2015)
pEC50, pIC50: −log10 of the molar value. Peptide text beside a SMILES is read from it.

Tests used:
[1] = biological target: T1, ROS 17/2.8 cells (endogenous rat PTHR) (Rattus norvegicus, UniProt P25961); assay: Acute cAMP response in ROS 17/2.8 rat osteoblastic cells; type: cell-based; conditions: 10^−7 M, hPTH(1-28) 10^−6 M, basal 3.7±0.4
T1 construct: the rat osteoblastic cell line ROS17/2.8, which endogenously expresses the rat PTHR; endogenous in cells; host or cells: ROS 17/2.8 rat osteosarcoma cells (membranes or intact cells)
T1 sequence (P25961 27-591): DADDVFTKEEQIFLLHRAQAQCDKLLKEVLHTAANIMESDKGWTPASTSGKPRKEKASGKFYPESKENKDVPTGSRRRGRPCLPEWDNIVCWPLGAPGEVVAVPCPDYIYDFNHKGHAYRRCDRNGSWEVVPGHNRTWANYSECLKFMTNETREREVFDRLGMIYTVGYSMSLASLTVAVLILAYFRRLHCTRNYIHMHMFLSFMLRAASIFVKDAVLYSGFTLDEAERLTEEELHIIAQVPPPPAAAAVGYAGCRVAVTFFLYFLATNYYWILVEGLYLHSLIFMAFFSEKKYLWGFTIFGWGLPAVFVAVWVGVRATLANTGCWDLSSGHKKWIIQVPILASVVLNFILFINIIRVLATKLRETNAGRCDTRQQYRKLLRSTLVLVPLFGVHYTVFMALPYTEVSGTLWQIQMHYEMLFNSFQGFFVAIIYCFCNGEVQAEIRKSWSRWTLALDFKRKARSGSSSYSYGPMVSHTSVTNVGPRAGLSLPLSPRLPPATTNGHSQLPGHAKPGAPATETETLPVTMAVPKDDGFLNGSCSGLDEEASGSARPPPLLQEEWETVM

[2] = Plasma cAMP in mice after subcutaneous injection; type: in vivo
Protocol: FIGS. 9A-9D are graphs showing in vivo plasma cAMP levels in mice treated with PTH analogs. Wild-type mice were injected subcutaneously with vehicle (0.9% NaCl/0.05% Tween-20), or vehicle containing a PTH peptide at a dose-level of 10 to 1,000 nmol of peptide per kg of body weight, and at indicated times after injection, blood was withdrawn from the tail vein, and the amount of cAMP in the resulting plasma was quantified by radioimmuno assay. Each curve corresponds to a peptide at a defined concentration, as indicated in the graph keys. The plasma cAMP concentrations are plotted as picomole per μl plasma.
(§1) Wild-type mice were injected subcutaneously with vehicle (0.9% NaCl/0.05% Tween-20), or vehicle containing a PTH peptide so as to achieve a concentration ranging from 10 to 1000 nmol/kg of body weight. At the indicated times after injection, blood was withdrawn from the tail vein, and the amount of cAMP in the resulting plasma was quantified by radioimmuno assay (FIGS. 9A-9D).
as §1, with “at” for “so as to achieve”, “dose level of” for “concentration ranging from”, “At” for “At the”, “assay. Ionized calcium in serum was measured as above and phosphate was measured by a U.V. spectroscopic kit assay.” for “assay (FIGS. 9A-9D).”

[3] = Calcemic action in normal rats (blood ionized calcium); type: in vivo; conditions: normal and TPTX rats
Protocol: Binding to the rat PTHR was also measured in vitro.
Concentration of peptides in stock solution were adjusted by dilution with 25 mmol/L phosphate-citrate buffer/100 mmol/L NaCl/0.05% Tween 80 (pH. 5.0) (PC-buffer). All peptides were allowed to stand on ice immediately before administration.
Female SD-IGS rat at 8 weeks of age (Charles River Japan, Inc.) were measured for their body weight. Blood was collected by tail vein into heparinized capillary tubes and measured for baseline levels of blood ionized calcium and pH using Ca^++/pH analyzer (Model 634/Bayer Medical Ltd.) to give the corrected level of ionized calcium at pH 7.4 for each sample. Rats received intravenous administration of each peptides at a dose of 1 ml/kg. Peptides were administered to groups of 6 rats each respectively. At 1, 2, 4, or 6 hours after administration, blood was collected by tail vein to monitor the time course of corrected blood ionized calcium levels. The time course of changes in corrected ionized calcium levels, compared to vehicle, and are expressed as means+/−standard error.

human PTH receptor = biological target: T2, human PTH receptor (Homo sapiens, UniProt Q03431); assay: cAMP in HRKRK-B7 cells EC50 (nM)
T2 construct: expressed in transfected cells
T2 sequence (Q03431 27-593 limits assumed): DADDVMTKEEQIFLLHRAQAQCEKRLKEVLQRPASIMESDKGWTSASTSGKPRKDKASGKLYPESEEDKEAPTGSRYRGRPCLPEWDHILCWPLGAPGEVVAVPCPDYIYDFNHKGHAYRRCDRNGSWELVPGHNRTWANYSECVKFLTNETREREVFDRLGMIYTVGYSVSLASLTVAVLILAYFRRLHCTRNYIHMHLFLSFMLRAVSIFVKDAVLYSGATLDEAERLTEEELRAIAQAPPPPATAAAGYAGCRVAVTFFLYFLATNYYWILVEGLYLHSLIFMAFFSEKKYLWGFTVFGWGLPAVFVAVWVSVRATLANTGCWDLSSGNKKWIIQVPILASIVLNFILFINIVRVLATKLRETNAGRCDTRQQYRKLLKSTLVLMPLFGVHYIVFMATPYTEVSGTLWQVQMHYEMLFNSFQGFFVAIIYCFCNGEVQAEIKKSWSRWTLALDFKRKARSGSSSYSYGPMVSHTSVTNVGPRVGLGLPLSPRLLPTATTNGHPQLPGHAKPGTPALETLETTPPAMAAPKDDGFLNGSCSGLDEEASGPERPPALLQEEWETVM
Text: Table printed on a drawing sheet, Figure 25
Head of the field: cAMP in HRKRK-B7 cells EC50 (nM)
First copying reader's note: The column head prints the cell line as HRKRK-B7 while the title prints HKRK-B7.

[4] = biological target: T3, hPTH1R (R0 form of the human PTH receptor) (Homo sapiens, UniProt Q03431); assay: R0 memb: hPTH1R*PTH( 1-34)+GTPgS
T3 construct: expressed in transfected cells; host or cells: COS-7, transient (Fugene-6)
T3 sequence (Q03431 27-593 limits assumed): as above

[5] = biological target: hPTH1R (RG form of the human PTH receptor); assay: RG memb: hPTH1R+dnGS *M-PTH(1-15)

Row | maximum cAMP response (ligand with IBMX 10 minutes, no wash-out) [1] [pmole/well] | pEC50 (human PTH receptor) | pIC50 [4] | pIC50 [5] | Compound | dose producing comparable increase in plasma cAMP [2] | calcemic action compared with control peptides, in words [3]
1 | 68±3 |  |  |  | CC[C@H](C)[C@H](NC(=O)[C@H](CCC(=O)O)NC(=O)[C@H](CO)NC(=O)[C@@H](NC(=O)[C@@H](N)CO)C(C)C)C(=O)N[C@@H](CCC(N)=O)C(=O)N[C@@H](CC(C)C)C(=O)N[C@@H](CCSC)C(=O)N[C@@H](Cc1c[nH]cn1)C(=O)N[C@@H](CC(N)=O)C(=O)N[C@@H](CC(C)C)C(=O)NCC(=O)N[C@@H](CCCCN)C(=O)N[C@@H](Cc1c[nH]cn1)C(=O)N[C@@H](CC(C)C)C(=O)N[C@@H](CC(N)=O)C(=O)N[C@@H](CO)C(=O)N[C@@H](CCSC)C(=O)N[C@@H](CCC(=O)O)C(=O)N[C@@H](CCCNC(=N)N)C(=O)N[C@H](C(=O)N[C@@H](CCC(=O)O)C(=O)N[C@@H](Cc1c[nH]c2ccccc12)C(=O)N[C@@H](CC(C)C)C(=O)N[C@@H](CCCNC(=N)N)C(=O)N[C@@H](CCCCN)C(=O)N[C@@H](CCCCN)C(=O)N[C@@H](CC(C)C)C(N)=O)C(C)C [hPTH(1-28)NH2] (H-SVSEIQLMHNLGKHLNSMERVEWLRKKL-NH2; N-terminus assumed) | 1,000 nmol/kg | 
2 |  | 9.05 | 7.77 | 9.66 | CC[C@H](C)[C@H](NC(=O)[C@H](CCC(=O)O)NC(=O)[C@H](C)NC(=O)[C@@H](NC(=O)[C@H](Cc1c[nH]cn1)NC(=O)[C@@H](NC(=O)[C@H](CCC(=O)O)NC(=O)[C@H](C)NC(=O)[C@@H](NC(=O)[C@H](CC(C)C)NC(=O)[C@H](Cc1c[nH]cn1)NC(=O)[C@H](Cc1c[nH]cn1)NC(=O)[C@H](CC(C)C)NC(=O)[C@H](Cc1ccccc1)NC(=O)[C@H](CCC(=O)O)NC(=O)[C@@H](NC(=O)[C@H](CCCNC(=N)N)NC(=O)[C@H](CCC(=O)O)NC(=O)[C@H](CCSC)NC(=O)[C@H](CO)NC(=O)[C@H](CC(N)=O)NC(=O)[C@H](CC(C)C)NC(=O)[C@H](Cc1c[nH]cn1)NC(=O)[C@H](CCCCN)NC(=O)CNC(=O)[C@H](CC(C)C)NC(=O)[C@H](CC(N)=O)NC(=O)[C@H](Cc1c[nH]cn1)NC(=O)[C@H](CCSC)NC(=O)[C@H](CC(C)C)NC(=O)[C@H](CCC(N)=O)NC(=O)[C@@H](NC(=O)[C@H](CCC(=O)O)NC(=O)[C@H](CO)NC(=O)[C@@H](NC(=O)[C@@H](N)CO)C(C)C)[C@@H](C)CC)C(C)C)[C@@H](C)CC)[C@@H](C)CC)[C@@H](C)O)C(=O)O [PTH(1-22)/PTHrP(23-36)] (H-SVSEIQLMHNLGKHLNSMERVEFLHHLIAEIHTAEI-OH) |  | weaker calcemic actions than did either PTH(1-34) or PTHrP(1-36) control peptides
3 | 67±6 |  |  |  | CC[C@H](C)[C@H](NC(=O)[C@H](CCC(=O)O)NC(=O)[C@H](CO)NC(=O)[C@@H](NC(=O)[C@@H](N)CO)C(C)C)C(=O)N[C@@H](CCC(N)=O)C(=O)N[C@@H](CC(C)C)C(=O)N[C@@H](CCSC)C(=O)N[C@@H](Cc1c[nH]cn1)C(=O)N[C@@H](CC(N)=O)C(=O)N[C@@H](CC(C)C)C(=O)NCC(=O)N[C@@H](CCCCN)C(=O)N[C@@H](Cc1c[nH]cn1)C(=O)N[C@@H](CC(C)C)C(=O)N[C@@H](CC(N)=O)C(=O)N[C@@H](CO)C(=O)N[C@@H](CCSC)C(=O)N[C@@H](CCC(=O)O)C(=O)N[C@@H](CCCNC(=N)N)C(=O)N[C@H](C(=O)N[C@@H](CCC(=O)O)C(=O)N[C@@H](Cc1c[nH]c2ccccc12)C(=O)N[C@@H](CC(C)C)C(=O)N[C@@H](CCCNC(=N)N)C(=O)N[C@@H](CCCCN)C(=O)N[C@@H](CCCCN)C(=O)N[C@@H](CC(C)C)C(=O)N[C@@H](CCC(N)=O)C(=O)N[C@@H](CC(=O)O)C(=O)N[C@H](C(=O)N[C@@H](Cc1c[nH]cn1)C(=O)N[C@@H](CC(N)=O)C(=O)N[C@@H](Cc1ccccc1)C(N)=O)C(C)C)C(C)C [hPTH(1-34)NH2] | 50 nmol/kg | 
4 |  | 8.97 | 8.10 | 9.51 | CC[C@H](C)[C@H](NC(=O)[C@H](CCC(=O)O)NC(=O)[C@H](C)NC(=O)[C@@H](NC(=O)[C@H](Cc1c[nH]cn1)NC(=O)[C@@H](NC(=O)[C@H](CCC(=O)O)NC(=O)[C@H](C)NC(=O)[C@@H](NC(=O)[C@H](CC(C)C)NC(=O)[C@H](CCCCN)NC(=O)[C@H](CCCNC(=N)N)NC(=O)[C@H](CC(C)C)NC(=O)[C@H](Cc1c[nH]c2ccccc12)NC(=O)[C@H](CCC(=O)O)NC(=O)[C@@H](NC(=O)[C@H](CCCNC(=N)N)NC(=O)[C@H](CCC(=O)O)NC(=O)[C@H](CCSC)NC(=O)[C@H](CO)NC(=O)[C@H](CC(N)=O)NC(=O)[C@H](CC(C)C)NC(=O)[C@H](Cc1c[nH]cn1)NC(=O)[C@H](CCCCN)NC(=O)CNC(=O)[C@H](CC(C)C)NC(=O)[C@H](CC(N)=O)NC(=O)[C@H](Cc1c[nH]cn1)NC(=O)[C@H](CCSC)NC(=O)[C@H](CC(C)C)NC(=O)[C@H](CCC(N)=O)NC(=O)[C@@H](NC(=O)[C@H](CCC(=O)O)NC(=O)[C@H](CO)NC(=O)[C@@H](NC(=O)[C@@H](N)CO)C(C)C)[C@@H](C)CC)C(C)C)[C@@H](C)CC)[C@@H](C)CC)[C@@H](C)O)C(=O)O [PTH(1-26)/PTHrP(27-36), hPTH(1-26)/PTHrP(27-36)] (H-SVSEIQLMHNLGKHLNSMERVEWLRKLIAEIHTAEI-OH) |  | weaker calcemic actions than did either PTH(1-34) or PTHrP(1-36) control peptides
